Test results: patent US20240309060A1, “POLYPEPTIDE BAX/NPM INHIBITORS” (TRUSTEES OF BOSTON UNIVERSITY, priority 2023, published 2024)
Entries after “also recorded” stand apart in the source; their conditions may differ. Square brackets hold non-standard residues; d marks the D form. βAla = NCCC(=O)O

What was measured:
human NPM1 = human NPM1 (Homo sapiens, UniProt P06748); assay: Surface plasmon resonance (SPR) binding of peptides to human NPM1; conditions: human NPM1, FIG. 14
From the text: FIG. 14 depicts a table of the association rate, dissociation rate and the calculated equilibrium dissociation constant for 10 representative therapeutic peptides as measured by Surface Plasmon Resonance (SPR). Mean rates are derived from at least three different peptide concentrations at levels below saturation with human NPM1. Cell survival data are normalized to the negative control (a GFP fragment of similar size to the therapeutic peptides) and represent the mean of at least 3 separate experiments.
FIG. 15 depicts an on-off rate map. A graph of the off-rate (x-axis) and on-rate (y-axis) of 10 representative peptides from different sets of modified peptides. Diagonal dash-lines represent the equilibrium dissociation constant (KD) estimates the NPM1 binding affinity for each peptide based on the distance to the lines.
The 3D helical wheel projection scan predicted that 5 of 6 peptide residues (except for L185) with intermediate effects on post-ischemic cell survival cluster in a single surface domain (FIGS. 6 and 7). These surface residues are likely regulating the binding affinity Kd) between the therapeutic peptide and NPM1, the human target protein. Since binding affinity (Kd) between the peptide drug and NPMB1 partly predicts its efficacy, a high throughput, quantitative surface plasmon resonance (SPR) assay was developed.
SPR was measured for 10 novel polypeptides with select single or double mutations. Both the measured peptide “on” and “off” rates for binding human NPM1 markedly differed (FIG. 15). […] For most modified peptides, greater protection against ischemic stress positively correlated with a low Kd. […] Overall, SPR data combined with cell survival data adequately informs the selection of therapeutic peptides based on the quantifiable effects of R group modifications on these parameters. The combination of SPR binding affinity and cell survival data in vitro effectively rank orders therapeutic peptides for in vivo testing in animals.

[1] = test system: primary murine proximal tubule epithelial cells (PTEC); assay: MTT cell survival assay of kidney cells after ischemic stress in vitro induced by metabolic inhibitors; type: cell-based; conditions: for Effect of the residue (single alanine substitution) on cytoprotection / cell survival after ischemic stress: alanine scanning of NPMB1, PTEC, FIG. 2; for Degree of cytoprotection during ischemic stress: alanine scan and pro-helical mutations; for Protection of primary kidney proximal tubule cells from ischemic stress (relative kidney cell survival rate): 70 min ischemic stress, metabolic inhibitors, vs non-specific GFP fragment, normalized to baseline, FIG. 4; for Viability of primary murine kidney cells after ischemic stress: ischemic stress induced by metabolic inhibitors, FIGS. 5, 7
Description: FIG. 2 depicts an NPMB1 Alanine Scan. Relative kidney cell survival rate after 70 min ischemic stress in vitro induced by metabolic inhibitors in the presence of NPMB1 (control) vs. 19 different NPMBx polypeptides with single alanine substitutions (2 additional NPMB1 alanine residues were not substituted). Residue numbers (x axis) reflect Bax sequence that binds human NPM1; Survival data are normalized to NPMB1; post-ischemic kidney cell survival is shown in tertiles: (left-most group: 5-40% survival; middle-group: 55-70% and third group: 80-95%); n=3 separate experiments.
Relative kidney cell survival rate after 70 min ischemic stress in vitro induced by transient exposure to metabolic inhibitors in the presence of NPMB polypeptides (Agents 2, 5, 7, 14 that reflect alanine scan polypeptides A173, A187, A179, A176) vs. a non—specific polypeptide (GFP fragment). Survival data normalized to baseline (no stress); *P<0.01vs. baseline; t P<0.05 vs. stress; data represent 3 separate experiments; error bars represent mean+SD.
FIGS. 13A-13B depict the cytoprotective effects of select therapeutic peptides during ischemic stress in vitro. Primary murine proximal tubule epithelial cells (PTEC) were transiently exposed to metabolic inhibitors for 60 min and allowed to recover for 6 hr. to simulate ischemia in vivo; MTT assay estimated cell survival. “Control” (open bars); is a GFP fragment of similar size to the therapeutic peptides was used a negative control; NPMB1 (prototype) serves as a positive control. […] All peptides contained the nuclear localizing sequence (NLS) to enhance peptide delivery to the kidney, a beta linker and both carboxy-and amino terminal modifications to reduce susceptibility to protease digestion; data are mean+standard error; n=3 separate experiments. Figure discloses SEQ ID NOS 139, 134-135, 128, 127, and 138, respectively, in order of appearance.
Structure activity relationships of NPMB1 derivatives were determined through alanine scanning In these studies, 19 polypeptides were produced using methods shown in FIGS. 8-11 and their effect of kidney cell survival after ischemic stress was characterized using the MTT cell survival assay. Based on determination of relative kidney cell survival rate, polypeptides were grouped according to activity as shown in FIG. 2 (orange: 5-40% survival; blue 55-70% survival, or green 80-95% survival).

Chain of human NPM1 (P06748 whole entry, the tested form may be a part): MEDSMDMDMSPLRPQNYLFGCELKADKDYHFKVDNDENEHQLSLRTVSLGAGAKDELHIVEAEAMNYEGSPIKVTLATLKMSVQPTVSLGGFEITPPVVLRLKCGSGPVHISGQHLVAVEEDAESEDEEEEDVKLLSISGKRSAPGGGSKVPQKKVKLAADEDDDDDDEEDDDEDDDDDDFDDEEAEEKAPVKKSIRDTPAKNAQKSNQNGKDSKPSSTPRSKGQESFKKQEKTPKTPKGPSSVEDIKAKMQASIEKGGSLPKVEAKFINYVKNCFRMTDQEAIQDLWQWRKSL

Substance	Effect of the residue (single alanine substitution) on cytoprotection / cell survival after ischemic stress [1]	further results
Ac-KKRRRKKRRRKKRRRK-Bala-TVTIFVAGVLTASLTIWKKMG-OH (Ac-KKRRRKKRRRKKRRRK[βAla]TVTIFVAGVLTASLTIWKKMG-OH; SMILES CC[C@H](C)[C@H](NC(=O)[C@@H](NC(=O)[C@H](CC(C)C)NC(=O)[C@H](CO)NC(=O)[C@H](C)NC(=O)[C@@H](NC(=O)[C@H](CC(C)C)NC(=O)[C@@H](NC(=O)CNC(=O)[C@H](C)NC(=O)[C@@H](NC(=O)[C@H](Cc1ccccc1)NC(=O)[C@@H](NC(=O)[C@@H](NC(=O)[C@@H](NC(=O)[C@@H](NC(=O)CCNC(=O)[C@H](CCCCN)NC(=O)[C@H](CCCNC(=N)N)NC(=O)[C@H](CCCNC(=N)N)NC(=O)[C@H](CCCNC(=N)N)NC(=O)[C@H](CCCCN)NC(=O)[C@H](CCCCN)NC(=O)[C@H](CCCNC(=N)N)NC(=O)[C@H](CCCNC(=N)N)NC(=O)[C@H](CCCNC(=N)N)NC(=O)[C@H](CCCCN)NC(=O)[C@H](CCCCN)NC(=O)[C@H](CCCNC(=N)N)NC(=O)[C@H](CCCNC(=N)N)NC(=O)[C@H](CCCNC(=N)N)NC(=O)[C@H](CCCCN)NC(=O)[C@H](CCCCN)NC(C)=O)[C@@H](C)O)C(C)C)[C@@H](C)O)[C@@H](C)CC)C(C)C)C(C)C)[C@@H](C)O)[C@@H](C)O)C(=O)N[C@@H](Cc1c[nH]c2ccccc12)C(=O)N[C@@H](CCCCN)C(=O)N[C@@H](CCCCN)C(=O)N[C@@H](CCSC)C(=O)NCC(=O)O) [NPMB1-I-010]		Kd / NPM1 binding affinity in words (human NPM1): relatively low Kd
Ac-PKKKRKV-Bala-AVTIFVAGVLTASLTIWKKMG-OMe [NPMB1-III-001]	moderate cytoprotective effects	
Ac-PKKKRKV-Bala-QVTIAVAGVLTASLTIWKKMG-OMe [NPMB1-X-009]		Cytoprotective effects during ischemic stress in vitro ([1]; peptides 100 nM, metabolic inhibitors 60 min, recovery 6 hr, vs GFP negative control, FIG. 13): most robust protection
Ac-PKKKRKV-Bala-QVTIFVAGVLTASLTIWKKMG-OMe [NPMB1-V-004]		Degree of cytoprotection during ischemic stress [1]: highly effective
Ac-PKKKRKV-Bala-TATIFVAGVLTASLTIWKKMG-OMe [NPMB1-III-002]	minimal effect on cell survival	Protection of primary kidney proximal tubule cells from ischemic stress (relative kidney cell survival rate) [1]: protect; Degree of cytoprotection during ischemic stress [1]: substantial protection; Viability of primary murine kidney cells after ischemic stress ([1]; listed as Agent 2): substantially improve the viability; also recorded: protect against ischemic injury
Ac-PKKKRKV-Bala-TVAIFVAGVLTASLTIWKKMG-OMe [NPMB1-III-003]	critical for cytoprotection	
Ac-PKKKRKV-Bala-TVTAFVAGVLTASLTIWKKMG-OMe [NPMB1-III-004]	moderate cytoprotective effects	
Ac-PKKKRKV-Bala-TVTIAVAAVLTASLTIWKKMG-OMe [NPMB1-X-008]		Kd / NPM1 binding affinity in words (human NPM1): relatively low Kd values
Ac-PKKKRKV-Bala-TVTIAVAGVLTASLTIWKKMG-OMe [NPMB1-III-005]	minimal effect on cell survival	Protection of primary kidney proximal tubule cells from ischemic stress (relative kidney cell survival rate) [1]: protect; Degree of cytoprotection during ischemic stress [1]: substantial protection; Viability of primary murine kidney cells after ischemic stress ([1]; listed as Agent 5): substantially improve the viability; also recorded: protect against ischemic injury
Ac-PKKKRKV-Bala-TVTIFAAGVLTASLTIWKKMG-OMe [NPMB1-III-006]	critical for cytoprotection	
Ac-PKKKRKV-Bala-TVTIFVAAVLTASLTIWKKMG-OMe [NPMB1-III-007]	minimal effect on cell survival	Protection of primary kidney proximal tubule cells from ischemic stress (relative kidney cell survival rate) [1]: protect; Degree of cytoprotection during ischemic stress [1]: substantial protection; Viability of primary murine kidney cells after ischemic stress ([1]; listed as Agent 7): substantially improve the viability; also recorded: protect against ischemic injury
Ac-PKKKRKV-Bala-TVTIFVAGALTASLTIWKKMG-OMe [NPMB1-III-008]	moderate cytoprotective effects	
Ac-PKKKRKV-Bala-TVTIFVAGVATASLTIWKKMG-OMe [NPMB1-III-009]	critical for cytoprotection	
Ac-PKKKRKV-Bala-TVTIFVAGVLAASLTIWKKMG-OMe [NPMB1-III-010]	critical for cytoprotection	
Ac-PKKKRKV-Bala-TVTIFVAGVLTAALTIWKKMG-OMe [NPMB1-III-011]	critical for cytoprotection	
Ac-PKKKRKV-Bala-TVTIFVAGVLTASATIWKKMG-OMe [NPMB1-III-012]	moderate cytoprotective effects	Viability of primary murine kidney cells after ischemic stress ([1]; listed as Agent 12): substantially improve the viability; also recorded: protect against ischemic injury
Ac-PKKKRKV-Bala-TVTIFVAGVLTASLAIWKKMG-OMe [NPMB1-III-013]	moderate cytoprotective effects	
Ac-PKKKRKV-Bala-TVTIFVAGVLTASLQIWKKMG-OMe [NPMB1-V-003]		Kd / NPM1 binding affinity in words (human NPM1): low Kd values (except NPMB1-V-003
Ac-PKKKRKV-Bala-TVTIFVAGVLTASLTAWKKMG-OMe [NPMB1-III-014]	minimal effect on cell survival	Protection of primary kidney proximal tubule cells from ischemic stress (relative kidney cell survival rate) [1]: protect; Degree of cytoprotection during ischemic stress [1]: substantial protection
Ac-PKKKRKV-Bala-TVTIFVAGVLTASLTIAKKMG-OMe [NPMB1-III-015]	critical for cytoprotection	
Ac-PKKKRKV-Bala-TVTIFVAGVLTASLTIWAKMG-OMe [NPMB1-III-016]	critical for cytoprotection	
Ac-PKKKRKV-Bala-TVTIFVAGVLTASLTIWKAMG-OMe [NPMB1-III-017]	critical for cytoprotection	
Ac-PKKKRKV-Bala-TVTIFVAGVLTASLTIWKKAG-OMe [NPMB1-III-018]	moderate cytoprotective effects	
Ac-PKKKRKV-Bala-TVTIFVAGVLTASLTIWKKMA-OMe [NPMB1-III-019]	critical for cytoprotection	
Ac-PKKKRKV-Bala-TVTLFVAGVLTASLTAWKKMG-OMe [NPMB1-X-002]		Kd / NPM1 binding affinity in words (human NPM1): relatively low Kd values
